{"source": "patent US6395725B1", "about": "“Analgesic methods using synthetic catalysts for the dismutation of superoxide radicals” (priority 1997, dated 2002)", "key": {"[1]": {"system": "tolerance to morphine", "assay": "Morphine tolerance in mice, hot plate test", "assay_type": "in vivo", "experimental": "Mice were treated twice a day with either saline (naive) or morphine (s.c., 10 mg/kg) for a period of 4 days to induce tolerance. For comparison, a dose of 10 mg, or less than 0.15 mg/kg every 4 to 10 hours, is a morphine dosage routinely prescribed for the 70 kg. human adult with severe pain. On day 5, all mice received a subcutaneous challenge dose of 3 mg./kg morphine and the level of analgesia was measured 30 minutes later. […] Tolerance to morphine was eliminated in mice that were treated with the superoxide dismutase catalyst SC-72325 administered intraperitoneally."}, "[2]": {"system": "morphine tolerance", "details": "literature background; cited from earlier work"}, "[3]": {"system": "temporomandibular joint dysfunction", "details": "intra-articular injections, patients with TMJ dysfunction; cited from earlier work"}}, "data": [{"compound": "CN1CC[C@]23c4c5ccc(O)c4O[C@H]2[C@@H](O)C=C[C@H]3[C@H]1C5", "note": "[morphine]", "values": [{"measurement": "analgesic effect from morphine on day 5", "setting": "[1]; mice treated with morphine s.c. 10 mg/kg twice a day for 4 days, challenge 3 mg/kg, 30 minutes, versus naive mice", "result": "decreased analgesic effect"}, {"measurement": "analgesia", "setting": "[1]; naive or non-tolerant mice, s.c. challenge dose 3 mg/kg, hot plate test", "result": 90, "unit": "%"}]}, {"compound": "NC(=NCCC[C@H](N)C(=O)O)N[N+](=O)[O-]", "note": "[NG-nitroarginine]", "values": [{"measurement": "morphine tolerance", "setting": "[2]", "result": "prevent and reverse morphine tolerance"}]}, {"compound": "C[C@]12N[C@H](Cc3ccccc31)c1ccccc12", "note": "[MK-801]", "values": [{"measurement": "morphine tolerance", "setting": "[2]", "result": "prevent morphine tolerance"}]}, {"compound": "human Cu/Zn superoxide dismutase: naturally occurring enzyme used intra-articularly as a nonsteroidal anti-inflammatory", "values": [{"measurement": "Positive response in terms of mandibular movement and pain", "setting": "[3]", "result": "83 % of patients"}]}]}
